Laboratory results from patent publication US5750531A, “Pyrimidine derivatives and processes for the preparation thereof” (Yuhan Corporation, priority 1994, dated 1998).

Experiments:
[1] = tested on: gastric secretion; assay: Inhibition of gastric secretion (pylorus ligation, Shay method); type: in vivo, Male Sprague-Dawley rats; conditions: 20 mg/kg intraduodenally, 5 hours; for Rel. Conc.: acid concentration relative to omeprazole; for Relative Acid Output: acid output relative to omeprazole; for Rel. Vol.: gastric juice volume relative to omeprazole
Method in brief: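 Rats under ether anaesthesia had the pylorus ligated, and the stomach was removed 5 h later. Gastric juice was centrifuged at 1,000 g, and its volume and acidity were measured. Relative volume, relative acid concentration and relative acid output […] were then calculated.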

[2] = molecular target: proton pump(H^+ /K^+ ATPase); assay: Inhibition of proton pump(H^+ /K^+ ATPase) activity; type: biochemical; conditions: pH 6.0, 37° C., 30 minutes preincubation and 30 minutes reaction; read-out: IC50 Test compound
Method in brief: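 Enzyme was preincubated with compound at five concentrations for 30 min at 37° C in Tris-HCl pH 6.0 with Mg2+, K+ and NH4Cl. Reaction ran 30 min at 37° C with ATP and was stopped with trichloroacetic acid. K+-stimulated inorganic phosphate release gave IC50 by Litchfield-Wilcoxon.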

IC50 [2] [µM] | Structure (SMILES) | Rel. Conc. [1] | Relative Acid Output [1] | Rel. Vol. [1]
~16.9 | CN(c1ccccc1)c1nc2c(c(N3CCc4ccccc4C3)n1)CCCC2.Cl [Example 50, 2-(N-methylphenylamino)-4-(1,2,3,4-tetrahydroisoquinolin-2-yl)-5,6,7,8-tetrahydroquinazoline hydrochloride] | 0.29 | 0.66 | 0.72
1.1 | Cc1ccccc1Nc1nc2c(c(N3CCc4ccccc4C3)n1)CCCC2.Cl [Example 51, 2-(2-methylphenylamino)-4-(1,2,3,4-tetrahydroisoquinolin-2-yl)-5,6,7,8-tetrahydroquinazoline hydrochloride] | 0.12 | 0.59 | 0.59
0.5 | Cc1cc(N2CCc3ccsc3C2C)nc(Nc2ccc(F)cc2C)n1.Cl (centres unmarked) [Example 52, 6-methyl-2-(2-methyl-4-fluorophenylamino)-4-(7-methyl-4,5,6,7-tetrahydrothieno[2,3-c]pyridin-6-yl)pyrimidine hydrochloride] | 0.94 | 1.12 | 1.34
2.1 | Cc1cc(N2CCc3ccsc3C2C)nc(Nc2ccc(F)cc2)n1.Cl (centres unmarked) [Example 53, 6-methyl-4-(7-methyl-4,5,6,7-tetrahydrothieno[2,3-c]pyridin-6-yl)-2-(4-fluorophenylamino)pyrimidine hydrochloride] | 1.14 | 0.55 | 0.47
20.6 | Cc1cc(N2CCc3ccsc3C2C)nc(N(C)c2ccccc2)n1.Cl (centres unmarked) [Example 54, 6-methyl-2-(N-methylphenylamino)-4-(7-methyl-4,5,6,7-tetrahydrothieno[2,3-c]pyridin-6-yl)pyrimidine hydrochloride] | 0.23 | 0.75 | 0.86
2.1 | Cc1cc(F)ccc1Nc1nc(C)c(C)c(N2CCc3ccsc3C2C)n1.Cl (centres unmarked) [Example 55, 5,6-dimethyl-2-(2-methyl-4-fluorophenylamino)-4-(7-methyl-4,5,6,7-tetrahydrothieno[2,3-c]pyridin-6-yl)pyrimidine hydrochloride] | 0.11 | 0.51 | 0.56
3.3 | Cc1cc(Nc2ccc(F)cc2C)nc(N2CCc3ccccc3C2C)n1.Cl (centres unmarked) [Example 57, 6-methyl-4-(2-methyl-4-fluorophenylamino)-2-(1-methyl-1,2,3,4-tetrahydroisoquinolin-2-yl)pyrimidine hydrochloride] | 0.27 | 0.61 | 1.2
> 25 | Cc1cc(Nc2ccc(F)cc2)nc(N2CCc3ccccc3C2C)n1.Cl (centres unmarked) [Example 58, 6-methyl-4-(4-fluorophenylamino)-2-(1-methyl-1,2,3,4-tetrahydroisoquinolin-2-yl)pyrimidine hydrochloride] | 0.16 | 0.35 | 0.58
~12.5 | Cc1cc(Nc2ccc(F)cc2C)nc(N2CCc3ccsc3C2C)n1.Cl (centres unmarked) [Example 59, 6-methyl-4-(2-methyl-4-fluorophenylamino)-2-(7-methyl-4,5,6,7-tetrahydrothieno[2,3-c]pyridin-6-yl)pyrimidine hydrochloride] | 0.25 | 0.56 | 0.51
~15 | Cc1cc(Nc2ccc(F)cc2)nc(N2CCc3ccsc3C2C)n1.Cl (centres unmarked) [Example 60, 6-methyl-4-(4-fluorophenylamino)-2-(7-methyl-4,5,6,7-tetrahydrothieno[2,3-c]pyridin-6-yl)pyrimidine hydrochloride] | 0.28 | 0.65 | 0.65
~12.5 | CCc1cc(Nc2ccc(F)cc2C)nc(N2CCc3ccccc3C2C)n1.Cl (centres unmarked) [Example 61, 6-Ethyl-4-(2-methyl-4-fluorophenylamino)-2-(1-methyl-1,2,3,4-tetrahydroisoquinolin-2-yl)pyrimidine hydrochloride] | 0.22 | 0.40 | 0.32
> 20 | CCc1cc(Nc2ccc(F)cc2C)nc(N2CCc3ccccc3C2)n1.Cl [Example 62, 6-ethyl-4-(2-methyl-4-fluorophenylamino)-2-(1,2,3,4-tetrahydroisoquinolin-2-yl)pyrimidine hydrochloride] | 0.31 | 0.67 | 0.61
~12 | CCc1cc(Nc2ccc(F)cc2)nc(N2CCc3ccccc3C2)n1.Cl [Example 63, 6-ethyl-4-(4-fluorophenylamino)-2-(1,2,3,4-tetrahydroisoquinolin-2-yl)pyrimidine hydrochloride] | 0.33 | 0.72 | 0.69
~10 | CCc1cc(N(C)c2ccccc2)nc(N2CCc3ccccc3C2)n1.Cl [Example 64, 6-ethyl-4-(N-methylphenylamino)-2-(1,2,3,4-tetrahydroisoquinolin-2-yl)pyrimidine hydrochloride] | 0.26 | 0.40 | 0.34
1 | Cc1cc(F)ccc1Nc1nc(N2CCc3ccccc3C2C)nc(C)c1C.Cl (centres unmarked) [Example 65, 5,6-dimethyl-4-(2-methyl-4-fluorophenylamino)-2-(1-methyl-1,2,3,4-tetrahydroisoquinolin-2-yl)pyrimidine hydrochloride] | 0.35 | 0.71 | 1.43
0.9 | Cc1cc(F)ccc1Nc1nc(N2CCc3ccccc3[C@H]2C)nc(C)c1C.Cl [Example 66, (R)-5,6-dimethyl-4-(2-methyl-4-fluorophenylamino)-2-(1-methyl-1,2,3,4-tetrahydroisoquinolin-2-yl)pyrimidine hydrochloride] | 0.47 | 0.85 | 1.49
1.3 | Cc1cc(F)ccc1Nc1nc(N2CCc3ccccc3[C@@H]2C)nc(C)c1C.Cl [Example 67, (S)-5,6-dimethyl-4-(2-methyl-4-fluorophenylamino)-2-(1-methyl-1,2,3,4-tetrahydroisoquinolin-2-yl)pyrimidine hydrochloride] | 0.31 | 0.62 | 1.36
3.1 | Cc1nc(N2CCc3ccccc3C2C)nc(Nc2ccc(F)cc2)c1C.Cl (centres unmarked) [Example 68, 5,6-dimethyl-4-(4-fluorophenylamino)-2-(1-methyl-1,2,3,4-tetrahydroisoquinolin-2-yl)pyrimidine hydrochloride] | 0.23 | 0.67 | 1.52
2.9 | Cc1nc(N2CCc3ccccc3[C@H]2C)nc(Nc2ccc(F)cc2)c1C.Cl [Example 69, (R)-5,6-dimethyl-4-(4-fluorophenylamino)-2-(1-methyl-1,2,3,4-tetrahydroisoquinolin-2-yl)pyrimidine hydrochloride] | 0.39 | 0.76 | 1.61
3.5 | Cc1nc(N2CCc3ccccc3[C@@H]2C)nc(Nc2ccc(F)cc2)c1C.Cl [Example 70, (S)-5,6-dimethyl-4-(4-fluorophenylamino)-2-(1-methyl-1,2,3,4-tetrahydroisoquinolin-2-yl)pyrimidine hydrochloride] | 0.22 | 0.61 | 1.3
